Laboratory results published in PubChem BioAssay AID2060625 (Molecular Pharmacology Branch, DTP, NCI, 2025).

Tested on: 186277-243-T-J2-PDC spheroids with HUVEC/MSC, viability
Assay: Anticancer human tumor 186277-243-T-J2-PDC patient-derived colon adenocarcinoma cell line growth inhibition [CLK]
Settings: for IC50: curve of first compound; for viability, T/C: stronger effect = lower value
Source text: A high-throughput screen of multi-cell type tumor spheroids was designed to identify active combinations of […] and targeted small molecules. Complex spheroids include a stromal component modeled by human endothelial cells (HUVEC) and fibroblasts modeled by human mesenchymal stem cells (MSCs). The concentration ranges selected for each drug and investigational agent were based upon clinically achievable concentrations if the clinical Cmax of the agent was known.
Compounds. The drugs and investigational agents: cirtuvivint (SM08502; NSC835563), CC-671 (NSC850746), vemurafenib (NSC761431), tapotoclax (NSC804041), sotorasib (NSC818433), adagrasib (NSC831453), MRTX-1133 (NSC836407), BAY2416964 (NSC825713), copanlisib (NSC816437), inavolisib (NSC800729), abemaciclib (NSC768073), osimertinib (NSC779217), entinostat (NSC756642), eltanexor (KPT-8602, NSC794443), venetoclax (NSC766270), ceralasertib (NSC777638), bortezomib (NSC756655), olaparib (NSC753686), talazoparib (NSC767125), alisertib (NSC759677), peposertib (NSC802822), gemcitabine (NSC613327), 5-fluorouracil (NSC19893), SN-38 (NSC673596), oxaliplatin (NSC266046), paclitaxel (NSC125973), and doxorubicin (NSC123127), were obtained from the National Cancer Institute (NCI) Developmental Therapeutics Program Chemical Repository. The FDA-approved anticancer drug set is available from the Developmental Therapeutics Program at https://dtp.cancer.gov/organization/dscb/obtaining/available plates.htm. […] The stock solutions were prepared in dimethyl sulfoxide (DMSO, Sigma-Aldrich, St. Louis, MO, cat. D2650), except for the platinum complexes which were prepared in saline (Quality Biological, Gaithersburg, MD, cat. 114-055-101), at 800-fold the tested concentration and stored at -70 degrees C prior to their use. All drugs and investigational agents were tested over a range starting from a high concentration at or near the clinical Cmax and decreasing in half-log increments. If the clinical Cmax for an agent had not been determined, the highest concentration tested was 10 microM.
Cell Culture. All cells were maintained in an incubator at 37 degrees C and 5% CO2 with 95% humidity. The PDC lines were cultured according to standard operating procedures established by the NCI PDMR. Briefly, all PDCs were thawed and cultured in Matrigel-coated flasks prepared with a working solution of 1X Ham's F-12 nutrient mix, without supplementation (Invitrogen, Waltham, MA, cat. 11765054), 100 U/mL penicillin-streptomycin (Invitrogen, cat. 15140122), and 2.5% Matrigel (Corning Inc., Corning, NY, cat. 354248) for the first three passages. The 947758-054-R-J2-PDC line was cultured in 6B/Colon 1A media, which includes advanced DMEM/F-12 (Thermo Fisher Scientific, cat. 12634028), 10 mM HEPES (Thermo Fisher Scientific, cat. 15630080), 1X GlutaMAX supplement (Thermo Fisher Scientific, cat. 35050061), 0.1 mg/mL primocin (InvivoGen, cat. ant-pm-2), 10% defined fetal bovine serum, heat inactivated (HyClone Laboratories Inc., cat. SH30070.03HI), 1.25 mM N-Acetyl-L-cysteine (Sigma-Aldrich, cat. A9165), 10 mM nicotinamide (Sigma-Aldrich, cat. N0636), 1X B-27 supplement (Thermo Fisher Scientific, cat. 17504044), 1X N-2 supplement (Thermo Fisher Scientific, cat. 17502048), and 10 microM Y-27632 dihydrochloride (Tocris Bioscience, cat. 1254). The 876862-298-R-J1-PDC was cultured in 6E media, which includes all 6B/Colon 1A media components plus 50% L-WRN conditioned media (ATCC, cat. CRL-3276), 50 ng/mL recombinant human EGF recombinant protein (hEGF; Thermo Fisher Scientific, cat. PHG0311), 10 ng/mL recombinant human fibroblast growth factor 10 (hGFG-10; PeproTech, cat. 100-26), 1 ng/mL recombinant human fibroblast growth factor 2 (hFGF-2; PeproTech, cat. 100-18B), and 1 µM prostaglandin E2 (PGE2; Tocris, cat. 2296). The 227483-062-R1-J1-PDC line was cultured in Panc media, containing all 6E components except hFGF-2, with the addition of 500 nM SB-431542 (Selleckchem, cat. S1067) and 10 nM gastrin (Tocris, cat. 3006). […]
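Note: compound exposure lasted seven days before readout.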
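Throughout, for viability, T/C: 100% = DMSO vehicle control wells.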

In the case of `CC(=O)O[C@H]1C(=O)[C@@]2(C)[C@H]([C@H](OC(=O)c3ccccc3)[C@]3(O)C[C@H](OC(=O)[C@H](O)[C@@H](NC(=O)c4ccccc4)c4ccccc4)C(C)=C1C3(C)C)[C@]1(OC(C)=O)CO[C@@H]1C[C@@H]2O` + CN1CCN(c2cc(C(=O)Nc3cc4cc(-c5cnn(C)c5)ccc4cn3)ccn2)CC1, the IC50 (second compound 0.0316 µM) is reported as < 31.6 nM, the IC50 (second compound 0.1 µM) is reported as < 31.6 nM and the IC50 (second compound 0.316 µM) is reported as < 31.6 nM. For the same molecule, the IC50 (second compound 1 µM) was < 31.6 nM, the IC50 (second compound 3.16 µM) was < 31.6 nM and the IC50 (second compound 10 µM) was < 31.6 nM. The viability, T/C (second compound 0.0316 µM, first compound 0.0316 µM) was 15.6%, the viability, T/C (second compound 0.0316 µM, first compound 0.1 µM) was 13.7% and the viability, T/C (second compound 0.0316 µM, first compound 0.316 µM) was 8.66%. It also gave a viability, T/C (second compound 0.0316 µM, first compound 1 µM) of 12.4%, a viability, T/C (second compound 0.0316 µM, first compound 3.16 µM) of 9.25% and a viability, T/C (second compound 0.0316 µM, first compound 10 µM) of 8.97%. It also gave a viability, T/C (second compound 0.1 µM, first compound 0.0316 µM) of 14.4%, a viability, T/C (second compound 0.1 µM, first compound 0.1 µM) of 14.6% and a viability, T/C (second compound 0.1 µM, first compound 0.316 µM) of 11.3%. It also gave a viability, T/C (second compound 0.1 µM, first compound 1 µM) of 11.4%, a viability, T/C (second compound 0.1 µM, first compound 3.16 µM) of 10.2% and a viability, T/C (second compound 0.1 µM, first compound 10 µM) of 10.2%. It also gave a viability, T/C (second compound 0.316 µM, first compound 0.0316 µM) of 13.3%, a viability, T/C (second compound 0.316 µM, first compound 0.1 µM) of 13.2% and a viability, T/C (second compound 0.316 µM, first compound 0.316 µM) of 12.5%. For the same molecule, the viability, T/C (second compound 0.316 µM, first compound 1 µM) was 12.5%, the viability, T/C (second compound 0.316 µM, first compound 3.16 µM) was 13.6% and the viability, T/C (second compound 0.316 µM, first compound 10 µM) was 12.1%. The viability, T/C (second compound 1 µM, first compound 0.0316 µM) was 2.45%, the viability, T/C (second compound 1 µM, first compound 0.1 µM) was 1.65% and the viability, T/C (second compound 1 µM, first compound 0.316 µM) was 0.61%. The viability, T/C (second compound 1 µM, first compound 1 µM) was 3.85%, the viability, T/C (second compound 1 µM, first compound 3.16 µM) was 1.22% and the viability, T/C (second compound 1 µM, first compound 10 µM) was 0.69%. For the same molecule, the viability, T/C (second compound 3.16 µM, first compound 0.0316 µM) was 0.85%, the viability, T/C (second compound 3.16 µM, first compound 0.1 µM) was 1.39% and the viability, T/C (second compound 3.16 µM, first compound 0.316 µM) was 0.92%. The viability, T/C (second compound 3.16 µM, first compound 1 µM) was 2.55%, the viability, T/C (second compound 3.16 µM, first compound 3.16 µM) was 2.07% and the viability, T/C (second compound 3.16 µM, first compound 10 µM) was 1.24%. The viability, T/C (second compound 10 µM, first compound 0.0316 µM) was 1.95%, the viability, T/C (second compound 10 µM, first compound 0.1 µM) was 3.43% and the viability, T/C (second compound 10 µM, first compound 0.316 µM) was 0.65%. It also gave a viability, T/C (second compound 10 µM, first compound 1 µM) of 0.96%, a viability, T/C (second compound 10 µM, first compound 3.16 µM) of 1.3% and a viability, T/C (second compound 10 µM, first compound 10 µM) of 0.72%.
